Results on 1 compound are retold here after patent US20130071853A1, “METHODS FOR IDENTIFYING COMPOSITIONS THAT ALTER WILDTYPE EXPRESSION OF GENES AND PROTEINS IN A PLANT CELL” (Dow Agrosciences LLC, priority 2010, published 2013).

The subject of experiment [1] is maize transcripts (corn genes on the microarray). Description: Agilent single-color global gene expression profiling of corn leaf tissue 2 h after spray treatment. As to conditions: for Regulation: Table 1: corn genes, 1-MCP alone, direction of change per probe/gene. The experiment is classed as in vivo, Zea maize (corn). How it is done:
Hybrid corn seed (one plant per pot) was planted in 1 quart pots filled with FAFARD 3B™ potting mix (Conrad Fafard, Inc., Agawam, Mass.). Corn was grown in a greenhouse with a 12 hr light cycle and watered every 24 hours or as needed to maintain stress free conditions. When the corn plants reached the V10 growth stage, the pots were arranged into a randomized complete block design with 4 plants with 3 replications per treatment. Corn plants were treated using a standard CO2 sprayer with 20 gal/acre carrier volume.
Treatments were: • Control: Oil/Adjuvant check using 0.035% v/v the organosilicone surfactant SILWET L-77 (Helena Chemical Co., Collierville, Tenn.) • Compound 1: A17492F (MCP) 25 g active ingredient/hectare (ai/ha)+0.035% SILWET surfactant • Compound 2: COMPASS fungicide 1x+0.035% SILWET surfactant • Combination (1 and 2): 1 MCP 25 g/ha+COMPASS fungicide 1x
Two hours after the spray application, upper leaves that had received the spray were sampled. For each plant, five, 2 inch pieces of leaves were taken, cut into small pieces and combined into a 50 ml polypropylene tube. Samples were immediately frozen on dry ice and sent on dry ice overnight to the laboratory for processing.
A single-color Agilent global gene expression profiling design was used to define differentially expressed genes for treated in reference to untreated maize leaf tissues. Three technical array replicates (Agilent Technologies Inc., Santa Clara, Calif.) were hybridized to compare different transcript abundance between leaf tissues treated with the COMPASS fungicide and/or 1-MCP in reference to untreated leaf tissues.
A Dow AgroSciences custom generated 60-mer comprehensive transcriptome-wide Zea maize oligonucleotide array was used to carry out microarray hybridizations. This array represents more than 58,000 different maize transcripts (Agilent Technologies Inc., Santa Clara, Calif.) obtained from public data sources. Microarray chips were printed using an Agilent format 2×105K, including 10 copies of 100 probes, 2 copies of 44,196 probes 1 copy of 14,355 probes in addition to 1,325 Agilent spike-in controls. The 60-mer unique and specific oligonucleotides were synthesized in-situ using the Sure-Print technology from the manufacturer.
Samples of 30-50 mg of frozen leaf tissues were resuspended in 450 μL of extraction buffer RLT from the RNeasy™ Kit for RNA extraction (Qiagen, Valencia, Calif.). Tissues were then ground to a fine powder by adding one 3 mm grinding bead to each frozen sample and grinding for 3 minutes using a GenoGrinder instrument at a rate of 300, 1×. Total RNA was purified following the manufacturer's instructions. Purified total RNA was then quantified and quality controlled using a NanoDrop™ spectrophotometer and visualized by standard 1% Agarose gel electrophoresis.
For labeling, a total of 1.0 μg of purified RNA from treated and untreated tissues was reverse transcribed, amplified and labeled with Cy3-CTP following the Agilent (Santa Clara, Calif.) one-color microarray-based gene expression QuickAmp™ labeling protocol. Since Dow AgroSciences-generated Zea maize AGILENT™ microarrays for gene expression (P/N G4503A, Design ID 022232) contain internal spike-in controls a one-color RNA spike-in kit (Agilent, Santa Clara, Calif.) was also labeled according to manufacturer's instructions. Samples were reverse transcribed using MMLV Reverse Transcriptase and amplified using a T7 RNA Polymerase. After amplification cRNA was purified using Qiagen's RNeasy mini spin columns and quantified using a NanoDrop spectrophotometer. Specific activity for Cy3 was determined by the following formula: […]
Oligo gene expression arrays were hybridized using the Agilent Technologies (Santa Clara, Calif.) Gene Expression Hybridization kit, Wash Buffer kit, Stabilization and Drying Solution following the manufacturer's instructions. Hybridizations were carried out on a fully automated TECAN HS4800 PRO™ (TECAN U.S., Research Triangle Park, N.C.). […]

The subject of experiment [2] is Arabidopsis genes on the microarray. Description: Agilent single-color global gene expression profiling of Arabidopsis leaf tissue 2 h after spray treatment. The experiment is classed as in vivo, Arabidopsis thaliana (variety Columbia). The settings on record: for Regulation^a: direction per probe/gene. As to the method:
Thirteen Arabidopsis seeds (variety Columbia) were planted in 6 inch pots filled with sandy clay medium. After emergence, pots were thinned to 10 plants per pot. Plants were grown in a greenhouse with a 12 hr light cycle and watered every 24 hours or as needed to maintain stress free conditions. When the Arabidopsis plants reached the vegetative (>BBCH 11<BBCH 30) stage (approx. 2-3 wks from planting), the pots were arranged into a randomized complete block design with 10 plants with 3 replications per treatment. The plants were treated using a standard CO2 sprayer with 20 gal/A carrier volume.
Control: Oil/Adjuvant check (0.035% v/v SILWET adjuvant L-77)
Compound 1: A17492F (MCP) 25 g ai /ha+0.035% SILWET adjuvant
Compound 2: COMPASS fungicide 1x+0.035% SILWET adjuvant
Combination: 1 MCP 25 g/ha+COMPASS fungicide 1x
Two hours after the spray application, leaves that had received the spray were sampled. For each treatment, two leaves were taken from each of the 10 plants and combined into a 50 ml polypropylene tube. Samples were immediately frozen on dry ice and sent on dry ice overnight to the laboratory for processing.
A single-color Agilent global gene expression profiling design was used to define differentially expressed genes for treated in reference to untreated Arabidopsis leaf tissues. Three technical array replicates (Agilent Technologies Inc., Santa Clara, Calif.) were hybridized to compare different transcript abundance between leaf tissues treated with Strobilurin and/or 1-MCP in reference to untreated leaf tissues. Arabidopsis slides, Product #G2519F, Design ID 021169 were obtained from Agilent Technologies.
Samples of 30-50 mg of frozen leaf tissues were resuspended in 450 μL of extraction buffer RLT from the RNeasy Kit for RNA extraction (Qiagen, Valencia, Calif.). Tissues were then ground to a fine powder by adding one 3 mm grinding bead to each frozen sample and grinding for 3 minutes using a GenoGrinder at a rate of 300, 1×. Total RNA was purified following the manufacturer's instructions. Purified total RNA was then quantified and quality controlled using a NanoDrop spectrophotometer and visualized by standard 1% Agarose gel electrophoresis.
For labeling, a total of 1.0 μg of purified RNA from treated and untreated tissues was reverse transcribed, amplified and labeled with Cy3-CTP following the Agilent (Santa Clara, Calif.) one-color microarray-based gene expression QuickAmp labeling protocol. Since Agilent Arabidopsis microarrays for gene expression (Product #G2519F, Design ID 021169) contain internal spike-in controls a one-color RNA spike-in kit (Agilent, Santa Clara, Calif.) was also labeled according to manufacturer's instructions. Samples were reverse transcribed using MMLV Reverse Transcriptase and amplified using a T7 RNA Polymerase. After amplification cRNA was purified using Qiagen's RNeasy mini spin columns and quantified using a NanoDrop spectrophotometer. Specific activity for Cy3 was determined by the following formula: (Concentration of Cy3)/(Concentration of cRNA)*1000=pmol of Cy3 per μg of cRNA. Samples for hybridization were normalized to 825 ng with a specific activity of >8.0 pmol of Cy3 per μg of cRNA.
Oligo gene expression arrays were hybridized using the Agilent Technologies (Santa Clara, Calif.) Gene Expression Hybridization kit, Wash Buffer kit, Stabilization and Drying Solution following the manufacturer's instructions. Hybridizations were carried out on a fully automated TECAN HS4800 PRO (TECAN U.S., Research Triangle Park, N.C.) hybridization instrument. The hybridization mixture was injected at 65° C. and incubated with agitation for 17 hrs after following a slide pre-hybridization step at 65° C. for 30 seconds. Slides were then washed at 37° C. for 1 minute using the Agilent GE Wash #1 followed by a second wash at 30° C. with Agilent GE Wash #2 for 1 minute and a final drying step using Nitrogen gas for 2 minutes and 30 seconds at 30° C. […]

Setting [3] is: corn leaves, 2 h after spray, ≧2 fold change.
Setting [4] is: Arabidopsis leaves, 2 h after spray, ≧5 fold change.

For the compound `CC1=CC1` [Compound 1-MCP, 1-methylcyclopropene], the Regulation entry was “up” in experiment [1] (probe ZmOL3000012), “down” in experiment [1] (probe ZmOL3007441), “Down” in experiment [1] (probe ZmOL3020067) and “Up” in experiment [1] (probe ZmOL3050321_2). Further, the “expression of carbonic anhydrase” value in experiment [1] (corn) is listed as “decreased”. For the same compound, the “overall effect of treatment on gene expression” value in experiment [1] (corn) and in experiment [2] (Arabidopsis) was “reduction in stress-related gene expression” each time. Further, the “genes differentially expressed on the microarray vs untreated” value was found to be 934 genes in experiment [1] (setting [3]) and 411 genes in experiment [2] (setting [4]). For the same compound, the “subset of genes changed uniquely in response to this treatment” value in experiment [1] (setting [3]) is on record as 362 genes; in experiment [2] (setting [4]), 202 genes. Besides, the “genes involved in translation whose expression changed that were induced” value in experiment [1] (corn, genes unique to the treatment) is reported as 9 out of 10. Further, in experiment [2] (Arabidopsis, ≧5 fold change), the “common genes following treatment with either 1-MCP or COMPASS alone” value is recorded as 165 genes. Moreover, the “Regulation^a” value is recorded as “up” in experiment [2] (Table 3: Arabidopsis genes, 1-MCP alone, probe A_84_P20410); “down” in experiment [2] (Table 3: Arabidopsis genes, 1-MCP alone, probe A_84_P786760); “down” in experiment [2] (Table 5: common genes, first column pair (a), probe A_84_P13916); “up” in experiment [2] (Table 5: common genes, first column pair (a), probe A_84_P507728).
